The term inhibition denotes the drop in the measured response relative to a control, in per cent. One may read the IC50 as the concentration that gives 50% inhibition.

The test system of assay [1] is HeLa. Nature of the assay: Anticancer activity against human Hela cells assessed as inhibition rate at 10 uM by SRB assay relative to control. In kind it is functional. (In general: Sulforhodamine B stains cellular protein and so reports cell mass.)
Assay [2] concerns A549. Nature of the assay: Anticancer activity against human A549 cells assessed as inhibition rate at 10 uM by SRB assay relative to control. In kind it is functional.
For assay [3], the system named is A549. Nature of the assay: Anticancer activity against human A549 cells assessed as inhibition rate at 30 uM by SRB assay relative to control. The class given is functional.
In assay [4] the test system is HeLa. Nature of the assay: Anticancer activity against human Hela cells assessed as inhibition rate at 30 uM by SRB assay relative to control. In kind it is functional.
In assay [5] the test system is HeLa. Nature of the assay: Anticancer activity against human HeLa cells assessed as inhibition of cell proliferation by SRB assay. In kind it is functional, cell-based.
The subject of assay [6] is A549. Nature of the assay: Anticancer activity against human A549 cells assessed as inhibition of cell proliferation by SRB assay. The class given is functional, cell-based.

On to `CCN(CC)c1ccc2cc(C(O)c3ccc(OCCN4CCN(C(=O)CN5CCN(C(=O)c6ccccc6C(F)(F)F)CC5)CC4)cc3)oc2c1` (stereo not given), for which the inhibition at 10 µM turned out to be 30.6% in the assay on HeLa [1] and 43.6% in the assay with A549 [2]. For the same compound, the inhibition at 30 µM with A549 [3] worked out at 57.8%; in the assay with HeLa [4] it was 49.8%.
In the case of `C=C(C)C(=O)N1CCN(CC(=O)N2CCN(CCOc3ccc(C(O)c4cc5ccc(N(CC)CC)cc5o4)cc3)CC2)CC1` (stereo not given), the inhibition at 10 µM with HeLa [1] was 5.4%; with A549 [2] it was 22.2%. The inhibition at 30 µM in the assay with A549 [3] is 55.5%; with HeLa [4] it was 30.5%.
For `C=CC(=O)N1CCN(CC(=O)N2CCN(CCOc3ccc(C(O)c4cc5ccc(N(CC)CC)cc5o4)cc3)CC2)CC1` (stereo not given), the IC50 with HeLa [5] was determined as 6.85 µM; in the assay with A549 [6], 9.18 µM. Moreover, the inhibition at 10 µM with HeLa [1] is 53.8%; in the assay on A549 [2] it was 51.9%. Also, the values for the inhibition at 30 µM in the assay on A549 [3] and in the assay with HeLa [4] were 64% and 90.7%, respectively.
In the case of `CCN(CC)c1ccc2cc(C(=O)c3ccc(OCCN4CCN(C(=O)CN5CCN(C(=O)c6cc(F)c(F)c(F)c6F)CC5)CC4)cc3)oc2c1`, the figures for the inhibition at 10 µM in the assay on HeLa [1] and in the assay on A549 [2] were 28% and 20%, respectively. Further, the inhibition at 30 µM in the assay with A549 [3] was 61.1%; in the assay with HeLa [4] it was 86.6%.
`CCN(CC)c1ccc2cc(C(=O)c3ccc(OCCN4CCN(C(=O)CN5CCN(C(=O)c6ccc([N+](=O)[O-])cc6)CC5)CC4)cc3)oc2c1`: the inhibition at 10 µM in the assay on HeLa [1] was 17.2%; with A549 [2] it was 16.5%. Besides, the inhibition at 30 µM came out at 22.9% in the assay with A549 [3] and 24% in the assay on HeLa [4].
For `CCc1ccc(C(=O)N2CCN(CC(=O)N3CCN(CCOc4ccc(C(=O)c5cc6ccc(N(CC)CC)cc6o5)cc4)CC3)CC2)cc1`, the IC50 with HeLa [5] was 14.5 µM; in the assay on A549 [6] it was greater than 30 µM. Further, the figures for the inhibition at 10 µM with HeLa [1] and with A549 [2] were 42.7% and 24.7%, respectively. Besides, the inhibition at 30 µM with A549 [3] is 76.7%; in the assay on HeLa [4], 81.1%.
`CCN(CC)c1ccc2cc(C(=O)c3ccc(OCCN4CCN(C(=O)CN5CCN(C(=O)c6ccc(C)cc6)CC5)CC4)cc3)oc2c1`: the IC50 in the assay with HeLa [5] was determined as 7.09 µM; with A549 [6], 9.17 µM. The figures for the inhibition at 10 µM in the assay on HeLa [1] and with A549 [2] were 61.4% and 54.3%, respectively. Moreover, the inhibition at 30 µM in the assay on A549 [3] was determined as 62.4%; with HeLa [4] it was 90.1%.
Consider `CCN(CC)c1ccc2cc(C(=O)c3ccc(OCCN4CCN(C(=O)CN5CCN(C(=O)c6ccc(C(F)(F)F)cc6)CC5)CC4)cc3)oc2c1`, for which the IC50 came out at 8.64 µM with HeLa [5] and 7.02 µM in the assay with A549 [6]. The inhibition at 10 µM in the assay on HeLa [1] worked out at 50.7%; with A549 [2] it was 54.8%. The inhibition at 30 µM is 77.9% in the assay with A549 [3] and 94.9% in the assay with HeLa [4].
As for `CCN(CC)c1ccc2cc(C(=O)c3ccc(OCCN4CCN(C(=O)CN5CCN(C(=O)c6cccc(C(F)(F)F)c6)CC5)CC4)cc3)oc2c1`, the figures for the inhibition at 10 µM with HeLa [1] and in the assay with A549 [2] were 27.4% and 49.3%, respectively. For the same compound, the inhibition at 30 µM in the assay with A549 [3] was determined as 57.8%; with HeLa [4], 70.1%.
Consider `CCN(CC)c1ccc2cc(C(=O)c3ccc(OCCN4CCN(C(=O)CN5CCN(C(=O)c6ccc(OC)cc6)CC5)CC4)cc3)oc2c1`, for which the IC50 in the assay with HeLa [5] turned out to be 27.2 µM; in the assay with A549 [6] it was 8.06 µM. The results for the inhibition at 10 µM in the assay with HeLa [1] and with A549 [2] were 27.5% and 65.3%, respectively. Further, the figures for the inhibition at 30 µM in the assay on A549 [3] and with HeLa [4] were 85.8% and 64.1%, respectively.
`CCN(CC)c1ccc2cc(C(O)c3ccc(OCCN4CCN(C(=O)CN5CCN(C(=O)c6ccc(C)cc6)CC5)CC4)cc3)oc2c1` (stereo not given): the IC50 in the assay on HeLa [5] is greater than 30 µM; in the assay with A549 [6], 1.54 µM. The inhibition at 10 µM in the assay on HeLa [1] worked out at 15.9%; in the assay with A549 [2] it was 77.9%. The inhibition at 30 µM is 97.2% in the assay on A549 [3] and 35.9% in the assay with HeLa [4].
For `CCN(CC)c1ccc2cc(C(=O)c3ccc(OCCN4CCN(C(=O)CN5CCN(C(=O)c6cc(Cl)cc(Cl)c6)CC5)CC4)cc3)oc2c1`, the inhibition at 10 µM in the assay with HeLa [1] stood at 20.1%; with A549 [2], 39.8%. The inhibition at 30 µM with A549 [3] turned out to be 49.3%; in the assay on HeLa [4] it was 41.7%.
As to `CCN(CC)c1ccc2cc(C(=O)c3ccc(OCCN4CCN(C(=O)CN5CCN(C(=O)c6ccc7ccccc7c6)CC5)CC4)cc3)oc2c1`, the IC50 is 11.2 µM with HeLa [5] and 21.4 µM with A549 [6]. Moreover, the inhibition at 10 µM was found to be 48.7% in the assay on HeLa [1] and 30.9% in the assay on A549 [2]. Also, the results for the inhibition at 30 µM in the assay on A549 [3] and in the assay with HeLa [4] were 78.8% and 85.3%, respectively.
In the case of `CCN(CC)c1ccc2cc(C(=O)c3ccc(OCCN4CCN(C(=O)CN5CCN(C(=O)c6ccc(Br)cc6C(F)(F)F)CC5)CC4)cc3)oc2c1`, the values for the inhibition at 10 µM with HeLa [1] and in the assay with A549 [2] were 33.2% and 41.4%, respectively. Further, the inhibition at 30 µM in the assay on A549 [3] was found to be 53.8%; with HeLa [4] it was 62.2%.
With `CCN(CC)c1ccc2cc(C(=O)c3ccc(OCCN4CCN(C(=O)CN5CCN(C(=O)c6ccccc6C(F)(F)F)CC5)CC4)cc3)oc2c1`, the inhibition at 10 µM turned out to be 25.5% in the assay with HeLa [1] and 27.3% in the assay on A549 [2]. The inhibition at 30 µM amounted to 34.5% in the assay on A549 [3] and 44.1% with HeLa [4].
As for `CCN(CC)c1ccc2cc(C(O)c3ccc(OCCN4CCN(C(=O)CN5CCN(C(=O)c6ccc(Br)cc6C(F)(F)F)CC5)CC4)cc3)oc2c1` (stereo not given), the inhibition at 10 µM in the assay on HeLa [1] was -1.6%; with A549 [2], 69.7%. In addition, the inhibition at 30 µM is 72.3% in the assay on A549 [3] and 9.7% with HeLa [4].
As to `CCN(CC)c1ccc2cc(C(O)c3ccc(OCCN4CCN(C(=O)CN5CCN(C(=O)c6ccc([N+](=O)[O-])cc6)CC5)CC4)cc3)oc2c1` (stereo not given), the inhibition at 10 µM is 17.2% in the assay on HeLa [1] and 19.2% in the assay with A549 [2]. Moreover, the inhibition at 30 µM was 33% with A549 [3] and 28.3% with HeLa [4].
As to `CCN(CC)c1ccc2cc(C(=O)c3ccc(OCCN4CCN(C(=O)CN5CCN(C(=O)c6ccccc6F)CC5)CC4)cc3)oc2c1`, the inhibition at 10 µM in the assay with HeLa [1] worked out at 31.4%; in the assay on A549 [2], 66.4%. The inhibition at 30 µM with A549 [3] stood at 76.9%; with HeLa [4], 56.9%.
Take `CCN(CC)c1ccc2cc(C(=O)c3ccc(OCCN4CCN(C(=O)CN5CCN(C(=O)c6ccc(F)cc6)CC5)CC4)cc3)oc2c1`: the values for the inhibition at 10 µM in the assay with HeLa [1] and in the assay on A549 [2] were 26% and 29%, respectively. The inhibition at 30 µM in the assay on A549 [3] was determined as 45.3%; in the assay on HeLa [4], 57%.
For `C=C(C)C(=O)N1CCN(CC(=O)N2CCN(CCOc3ccc(C(=O)c4cc5ccc(N(CC)CC)cc5o4)cc3)CC2)CC1` the same measures were -2.1%, 36.1%, 69.8% and 3.2%.
In the same order, the values of `C=CC(=O)N1CCN(CC(=O)N2CCN(CCOc3ccc(C(=O)c4cc5ccc(N(CC)CC)cc5o4)cc3)CC2)CC1` are 18.6%, 2.3%, 9.3% and 32.1%.
Consider `CCN(CC)c1ccc2cc(C(O)c3ccc(OCCN4CCN(C(=O)CN5CCN(C(=O)c6ccc(OC)cc6)CC5)CC4)cc3)oc2c1` (stereo not given), for which the inhibition at 10 µM in the assay on HeLa [1] was 42%; in the assay with A549 [2], 55.2%. For the same compound, the results for the inhibition at 30 µM with A549 [3] and in the assay with HeLa [4] were 63.5% and 66.7%, respectively.
On to `CCN(CC)c1ccc2cc(C(O)c3ccc(OCCN4CCN(C(=O)CN5CCN(C(=O)c6ccc7ccccc7c6)CC5)CC4)cc3)oc2c1` (stereo not given), for which the figures for the IC50 in the assay on HeLa [5] and with A549 [6] were greater than 30 µM and 3.05 µM, respectively. Besides, the inhibition at 10 µM in the assay with HeLa [1] came out at 12.1%; in the assay on A549 [2], 77.9%. Further, the inhibition at 30 µM came out at 89.2% with A549 [3] and 24% with HeLa [4].
Regarding `CCc1ccc(C(=O)N2CCN(CC(=O)N3CCN(CCOc4ccc(C(O)c5cc6ccc(N(CC)CC)cc6o5)cc4)CC3)CC2)cc1` (stereo not given), the inhibition at 10 µM with HeLa [1] was determined as 36.1%; with A549 [2], 47.9%. Also, the results for the inhibition at 30 µM in the assay on A549 [3] and in the assay with HeLa [4] were 73.2% and 75.2%, respectively.
`CCN(CC)c1ccc2cc(C(O)c3ccc(OCCN4CCN(C(=O)CN5CCN(C(=O)c6ccccc6F)CC5)CC4)cc3)oc2c1` (stereo not given): the IC50 with HeLa [5] was determined as 4.72 µM; in the assay with A549 [6] it was 8.63 µM. Further, the inhibition at 10 µM was determined as 79% in the assay on HeLa [1] and 55.3% with A549 [2]. The inhibition at 30 µM turned out to be 75.6% in the assay on A549 [3] and 92% in the assay with HeLa [4].
`CCN(CC)c1ccc2cc(C(=O)c3ccc(OCCN4CCN(C(=O)CN5CCN(C(=O)c6ccc(Cl)cc6)CC5)CC4)cc3)oc2c1`: the results for the IC50 in the assay with HeLa [5] and in the assay on A549 [6] were 14.8 µM and 24.9 µM, respectively. Besides, the inhibition at 10 µM was determined as 47.5% in the assay on HeLa [1] and 22.9% in the assay with A549 [2]. The inhibition at 30 µM in the assay with A549 [3] is 78.1%; with HeLa [4] it was 89%.
As for `CCN(CC)c1ccc2cc(C(O)c3ccc(OCCN4CCN(C(=O)CN5CCN(C(=O)c6cccc(C(F)(F)F)c6)CC5)CC4)cc3)oc2c1` (stereo not given), the IC50 in the assay on HeLa [5] worked out at 28.3 µM; in the assay with A549 [6], 8.96 µM. Also, the inhibition at 10 µM is 43.9% with HeLa [1] and 65.1% in the assay on A549 [2]. For the same compound, the inhibition at 30 µM with A549 [3] was found to be 81.2%; in the assay with HeLa [4], 69.5%.

These data come from ChEMBL document CHEMBL5321258, “Anticancer evaluation of benzofuran derivatives linked to dipiperazine moiety” (Bioorg Med Chem Lett, 2023).
